Results on seven compounds are retold here after patent US8178545B2, “Dual small molecule inhibitors of cancer and angiogenesis” (University of Virginia Patent Foundation, priority 2004, dated 2012).

The subject of experiment [1] is SW-620. The following applies: NCI data; cited from earlier work.
The test system of experiment [2] is HCC-2998. The note with it: NCI data; cited from earlier work.
The test system of experiment [3] is COLO205. The following applies: NCI data; cited from earlier work.
In experiment [4] the test system is KM12. The following applies: NCI data; cited from earlier work.
The subject of experiment [5] is HT29. The note with it: NCI data; cited from earlier work.
In experiment [6] the test system is HCT-15. The following applies: NCI data; cited from earlier work.
Experiment [7] relates to HCT-116. The note with it: NCI data; cited from earlier work.
The test system of experiment [8] is NCI/ADR cells (Pgp expressing). The note with it: NCI/ADR (Pgp expressing) and MDA-MB-435 (Pgp deficient); Tinley et al. 2003; cited from earlier work.
In experiment [9] the test system is MDA-MB-435 cells. Description: Anti-proliferative activity, SRB assay. The class given is cell-based. The following applies: Homo sapiens.
The test system of another experiment is tubulin. In words: Microtubule disruption / tubulin depolymerization. The class given is cell-based. The note with it: for Microtubule activity (% depolymerization): at 5 μM.
Experiment [10] deals with NCI/ADR cells (Pgp expressing). In words: Proliferation of Pgp expressing cell line. The class given is cell-based. The following applies: for IC50: Homo sapiens, NCI/ADR-RES; for Rr value: relative resistance, NCI/ADR vs MDA-MB-435. An excerpt: Relative resistance (Rr) values can be calculated by dividing the IC50 of the […] cell line.

The subject of experiment [11] is COLO205. Description: NCI anticancer drug screen, proliferation (GI50). The class given is cell-based. The note with it: Homo sapiens, COLO 205. As for the experimental part: (§1) SC-2-71 was evaluated against human cultured cell lines in the NCI Anticancer Drug Development Program. […] This includes potent inhibition of colon cancer cells from primary tumors, distal metastasis and ascites fluid.

The subject of experiment [12] is HCT-116. Description: NCI anticancer drug screen, proliferation (GI50). The class given is cell-based. The note with it: Homo sapiens, grade III tumor cells (HCT116). As to the method: as §1
The subject of experiment [13] is HCC-2998. In words: NCI anticancer drug screen, proliferation (GI50). The following applies: Homo sapiens. Type of experiment: cell-based. As to the method: as §1
Experiment [14] relates to HT29. Description: NCI anticancer drug screen, proliferation (GI50). The class given is cell-based. The following applies: Homo sapiens, HT-29. As to the method: as §1
Experiment [15] relates to SW-620. In words: NCI anticancer drug screen, proliferation (GI50). The note with it: Homo sapiens. Type of experiment: cell-based. As for the experimental part: as §1
The test system of experiment [16] is HCT-15. In words: NCI anticancer drug screen, proliferation (GI50). The class given is cell-based. The note with it: Homo sapiens. As to the method: as §1
Experiment [17] concerns KM12. In words: NCI anticancer drug screen, proliferation (GI50). The class given is cell-based. The note with it: Homo sapiens. As to the method: as §1
Experiment [18] has as its system blood vessels on the chick chorioallantoic membrane. In words: Chick chorioallantoic membrane (CAM) model of blood vessel growth. The following applies: 100 μM, compared to control. The class given is in vivo. As to the method: SC-2-71 (100 μM) inhibited a translational model of blood vessel growth in vivo (CAM, FIG. 8, panel B and C) as compared to control (FIG. 8, panel A). This strongly establishes that SC-2-71 has anti-angiogenic activity. Further it raises the question as to the expression level of βIII tubulin in HMECs.

The test system of experiment [19] is MDA-MB-435 cells. In words: Cell cycle progression by flow cytometry. The class given is cell-based. The following applies: 3 μM for 18 h, Krishan's reagent. As for the experimental part:
The effects of SC-2-71 on cell cycle progression were determined using flow cytometry techniques. MDA-MB-435 cells were treated with 3 μM SC-2-71 for 18 h, stained with Krishan's reagent and DNA content analyzed.
For orientation: In flow cytometry, cells or beads pass a laser one at a time.

The test system of another experiment is HeLa cells. In words: Mitotic spindle formation. The following applies: low micromolar concentrations. Type of experiment: cell-based.
In the next experiment the test system is A-10 cells. In words: Cell based phenotypic screen of microtubule disruption. From the text: FIG. 2 Depicts the microtubule depolymerizing effects of SC-2-71 in A-10 cells.
The microtubule disrupting effects of SC-2-71 were detected in a cell based phenotypic screen (FIG. 2). […] This effect is consistent with the effects observed from other microtubule depolymerizers. […] This is also a hallmark of microtubule disrupting compounds. Depolymerization of interphase microtubules is a classic response of cells to relatively high concentrations of microtubule disruptors such as the vinca alkaloids.

Experiment [20] has as its system Human Microvessel Endothelial Cells (HMEC). In words: Endothelial cell proliferation. Type of experiment: cell-based. The following applies: triplicate, ± SEM. An excerpt: (§2) Without wishing to be bound by any particular theory, strategies and experiments are described herein pertaining to developing an anti-cancer strategy of simultaneously inhibiting endothelial and cancer cells. […] The taxanes, taxol and docetaxel, vinblastine, vincristine and 2-methoxyestradiol all have anti-angiogenic activity in vivo. […] SC-2-71's ability to inhibit angiogenesis in an in vivo model was then examined.

Experiment [21] relates to Human Umbilical Vein Endothelial Cells (HUVEC). Description: Endothelial cell proliferation. The note with it: triplicate, ± SEM. Type of experiment: cell-based.
Excerpt: as §2

A further experiment deals with NCI 60 human cell lines. Description: NCI 60 human cell lines (GI50). The following applies: several cell lines of the NCI 60 panel. The class given is cell-based. From the text:
FIG. 1 Depicts the effects of SC-2-71 against the NCI 60 human cell lines (GI50).
Several interesting findings are evident.

What is called GI50 is the concentration giving 50% growth inhibition. What is called IC50 is the concentration at which inhibition is half-maximal. Low readings indicate inhibition by little substance, high ones a need for much substance.

“Also recorded” adds a separate entry of the source. Like-named read-outs stand apart in the source and are kept apart here.

For `CC[C@]1(O)C[C@H]2CN(CCc3c([nH]c4ccccc34)[C@@](C(=O)OC)(c3cc4c(cc3OC)N(C=O)[C@H]3[C@@](O)(C(=O)OC)[C@H](OC(C)=O)[C@]5(CC)C=CCN6CC[C@]43[C@@H]65)C2)C1` [Vincristine], the GI50 is 110 nM in the experiment on SW-620 [1]; 110 nM in the experiment with HCC-2998 [2]; 120 nM in the experiment with COLO205 [3]; 120 nM in the experiment with KM12 [4]; 110 nM in the experiment on HT29 [5]; 140 nM in the experiment on HCT-15 [6]. In the experiment with HCT-116 [7], the GI50 was 120 nM.

Consider `CC(=O)O[C@H]1C(=O)[C@@]2(C)[C@H]([C@H](OC(=O)c3ccccc3)[C@]3(O)C[C@H](OC(=O)[C@H](O)[C@@H](NC(=O)c4ccccc4)c4ccccc4)C(C)=C1C3(C)C)[C@]1(OC(C)=O)CO[C@@H]1C[C@@H]2O` [taxol], for which the Rr value in [8] is reported as 827.

In the case of `O=c1[nH]cc(F)c(=O)[nH]1` [Compound 5FU, 5-Fluorouracil], the GI50 in the experiment on SW-620 [1] was 26200 nM; in the experiment on HCC-2998 [2], 1400 nM; in the experiment with COLO205 [3], 7200 nM; with KM12 [4] it was 11100 nM; in the experiment with HT29 [5], 6700 nM; in the experiment on HCT-15 [6], 5800 nM. For the same compound, the GI50 in the experiment on HCT-116 [7] is 4000 nM.

Take `O=C(c1ccccc1)c1ccc(C2NC(=O)c3ccccc3N2)cc1` (stereo not drawn) [SC-4-283]: in the experiment with MDA-MB-435 cells [9], half-maximal inhibition (IC50) required 0.9 ± 0.3 µM. Besides, in the experiment with tubulin, the “inhibition of tubulin polymerization” value is listed as “improved inhibitory activity in relation to SC-2-71; also recorded: potent inhibitor of tubulin polymerization” and the “Microtubule activity (% depolymerization)” value worked out at 50% at 5 μM.

With `O=C(c1ccccc1)c1ccc(C2NC(=O)c3ccccc3N2)cc1Cl` (stereo not drawn) [SC-5-87], in the experiment on MDA-MB-435 cells [9], the midpoint of inhibition, the IC50, lay at 0.26 ± 0.02 µM. Further, in experiment [10], half-maximal inhibition (IC50) was put at 0.76 ± 0.01 µM and the Rr value is given as 2.9. Moreover, in the experiment on tubulin, the “Microtubule activity (% depolymerization)” value is recorded as 90% at 5 μM.

Take `Cc1ccccc1-c1ccc(C2NC(=O)c3ccccc3N2)cc1` (stereo not drawn) [SC-5-121]: the IC50 in the experiment with MDA-MB-435 cells [9] came out at 0.6 ± 0.1 µM; in experiment [10], 0.88 ± 0.03 µM. This compound displayed a Rr value in [10] of 1.2. In addition, in the experiment with tubulin, the “Microtubule activity (% depolymerization)” value is 90% at 5 μM.

Regarding `O=C1NC(c2ccc(-c3ccccc3)cc2)Nc2ccccc21` (stereo not drawn) [SC-2-71], the IC50 in the experiment on MDA-MB-435 cells [9] was 0.61 ± 0.1 µM; in [10], 1.8 ± 0.11 µM; in [20], 20000 nM; in experiment [21] (Homo sapiens, HUVEC) it was 1600 nM; in experiment [21] it was 1660 ± 500 nM. The GI50 in the experiment on COLO205 [11] was 900 nM; with HCT-116 [12], 500 nM; with HCC-2998 [13] (HCC 2998, colon HCC2998, read-out: lowest GI50), 68 nM; in the experiment with HCC-2998 [13] (HCC-2998, read-out: GI50), 68 nM; in the experiment on HT29 [14], 1000 nM; in the experiment with SW-620 [15], 4000 nM. The values for the GI50 with HCT-15 [16], in the experiment on KM12 [17] and with NCI 60 human cell lines were 400 nM, 2000 nM and more than 100000 nM, respectively. Further, the “blood vessel growth (CAM)” value in experiment [18] is listed as “inhibited”. Moreover, in experiment [10] (inferred from Rr values), the “transport by Pgp” value is “poor substrate for transport by Pgp”. The Rr value in experiment [10] stood at 2.95. Also, the “cell cycle progression (DNA content)” value in the experiment on MDA-MB-435 cells [19] is on record as “distinct mitotic accumulation”. In the experiment on HeLa cells, the “mitotic spindles and mitotic accumulation” value is “formation of abnormal mitotic spindles and mitotic accumulation”. The micronucleation result in the experiment on A-10 cells is listed as “extensive micronucleation”. The “effect on cellular microtubules” value with A-10 cells (interphase microtubule network) is recorded as “concentration dependent loss of cellular microtubules”. In addition, in the experiment with tubulin, the “Microtubule activity (% depolymerization)” value was found to be 50%.
